Values quoted from earlier work, collected in US20110038852A1, “ANTIVIRALS THAT TARGET TRANSPORTERS, CARRIERS, AND ION CHANNELS” (3-V BIOSCIENCES, INC., priority 2009, published 2011).

What was measured:
[1] = tested on: rhinovirus infections
[2] = tested on: rhinoviral infections; conditions: volunteers, clinical trials

| Molecule | side effects ([1]; human, in vivo) | effect against rhinovirus infections ([1]; used intranasally) | mucus secretions and illness-associated symptoms [2] |
| --- | --- | --- | --- |
| Interferon-alpha | nasal bleeding | effective |  |
| Cc1cc(CCCOc2c(C)cc(-c3noc(C(F)(F)F)n3)cc2C)on1 [Pleconaril] |  |  | significant decrease |
